Source: PMC10041525, “New Dual Inhibitors of Bacterial Topoisomerases with Broad-Spectrum Antibacterial Activity and In Vivo Efficacy against Vancomycin-Intermediate Staphylococcus aureus” (Journal of Medicinal Chemistry, 2023)
“And” between values parts separate entries of the source, which are not always exact repeats. Equal values may be shown once. Read-outs that look alike come from different tables or passages of the source.

Columns and labels:
HepG2 cell line = assay: MTS cytotoxicity assay; type: cell-based, human
Description: (§1) Briefly, Eagle’s minimum essential medium (Gibco, Thermo Fisher Scientific, Waltham, MA, USA) was used to culture the cells. The following supplements were added to the medium: L-glutamine (2 mM; Sigma-Aldrich, St. Louis, MO, USA), penicillin (100 U/mL; Sigma-Aldrich, St. Louis, MO, USA), streptomycin (100 μg/mL; Sigma-Aldrich, St. Louis, MO, USA), and fetal bovine serum (10%; Gibco, Thermo Fisher Scientific, Waltham, MA, USA). The cells were maintained at 37 °C in a humidified 5% CO2 atmosphere. The cells were plated in 96-well plates at a density of 2000 cells per well and incubated for 24 h. Then, the cells were treated with selected compounds, positive control (50 μM etoposide), or vehicle control (0.5% DMSO) and incubated for 72 h. The CellTiter96 Aqueous One Solution Reagent (10 μL; Promega, Madison, WI, USA) was then added to each well, and the plate was incubated for another 3 h. Absorbance at 490 nm was measured with a BioTek Synergy 4 Hybrid Microplate Reader (Winooski, VT, USA). Independent experiments were repeated three times, each performed in triplicate. Statistical significance (p < 0.05) was calculated with two-tailed Student’s t test between treated groups and DMSO. IC50 values (concentration of the compound that gives a half-maximal response) are given as average values from the independent measurements and were determined using GraphPad Prism 5.0 software (San Diego, CA, USA)

MCF-7 cell line = assay: MTS cytotoxicity assay; type: cell-based, human
Description: as §1

[1] = test system: S. aureus ATCC 700699 (VISA); type: in vivo, female CD-1 mice; settings: for Change in log10CFU/gr of thigh from 2 hour control / Change in log10CFU/gr of thigh from 26 hours control / Average log10CFU/gr of thigh: IV; for Average log10CFU/gr of thigh: 26 h
Description: The neutropenic mouse thigh infection model study was performed by NeoSome Life Sciences, LLC (Lexington, MA, USA) according to NeoSome Institutional Animal Care and Use Committee (IACUC) policies and guidelines as well as NIH’s Office of Laboratory Animal Welfare (OLAW) standards.
Neutropenic mouse thigh infection experiments were performed on female CD-1 mice (Charles River Laboratories, USA). To induce neutropenia, mice received two doses of cyclophosphamide on days −4 and −1 with 150 and 100 mg/kg delivered intraperitoneally (IP), respectively. The inoculum of the testing strain, S. aureus ATCC 700699-P1 (VISA), was prepared from overnight agar plate cultures. To prepare bacterial inoculums, a portion of the plate was resuspended in sterile saline and adjusted to an OD of 0.12 at 625 nm. Next, the resulted bacterial suspension was further diluted to reach an infecting inoculum of 6.0 × 10^5 cfu per each mouse. Plate counts of the inoculum were also performed in each case to confirm the inoculum concentration, and the actual inoculum size was 7.25 × 10^5 cfu/mouse. Mice were inoculated with 100 μL of the prepared bacterial suspension via an intramuscular injection into the right rear thigh. […] The test agent was then dosed via IV administration, to ensure optimal distribution, at 2, 10, and 18 h post-infection. Beginning at 2 h, post-infection mice were dosed with either test article or positive control antibiotic. Mice receiving test agents were dosed intravenously at 10 mL/kg. Linezolid was delivered as a SC dose to ensure optimized exposure, distribution, and efficacy. Four animals were dosed per group. One group of four mice was euthanized at the initiation of therapy (t = 2 h) and cfus determined. All remaining mice were euthanized at 26 h post-infection. At termination, thighs were aseptically excised, weighed, and homogenized to a uniform consistency in 2 mL of sterile saline. The homogenate was serially diluted and plated on bacterial growth media. The cfus were enumerated after overnight incubation.

A. baumannii DNA gyrase = A. baumannii DNA gyrase (Acinetobacter baumannii, UniProt A0ABX6CA01); assay: gel-based supercoiling assay; type: biochemical
Description: In all experiments, the activity of the
enzymes was determined prior to the testing of the compound and 1 unit (U) was defined as the
amount of enzyme required to just fully supercoil or decatenate the substrate. This amount of
enzyme was initially used in determination of control inhibitor activity. These experiments were
performed in duplicate. […] The final DMSO
concentration was 1% for all assays. All measurements were performed in quadruplicates. The
condition for each reaction were as follows:
− S. aureus gyrase supercoiling assay
1 U of S. aureus gyrase was incubated with 0.5 µg of relaxed pBR322 DNA in a 30 µL reaction at
magnesium acetate, 10 mM DTT, 2 mM ATP, 500 mM potassium glutamate and 0.05 mg/mL
− S. aureus topo IV decatenation assay
1 U of S. aureus topo IV was incubated with 20 µg kDNA in a 30 µL reaction at 37 °C for 30
mM ATP, 350 mM potassium glutamate and 0.05 mg/mL albumin.
− A. baumannii gyrase supercoiling assay
1 U of A. baumannii gyrase was incubated with 0.5 µg of relaxed pBR322 DNA in a 30 µL reaction
blue), before being loaded on a 1.0% TAE gel run at 80V for 2 hours. Bands were visualised by
ethidium bromide staining for 20 minutes and destaining for 20 minutes. Gels were scanned using
documentation equipment (GeneGenius, Syngene, Cambridge, UK) and % inhibition levels were
measured by determining the relative fluorescence of the supercoiled band using gel scanning
software. […]

H. influenzae ATCC 49766 = test system: H. influenzae ATCC 49766; design: method as in earlier work; settings: QC range for H. influenzae ATCC 49766, ref CLSI; cited from earlier work

Chain of A. baumannii DNA gyrase (A0ABX6CA01 1-822): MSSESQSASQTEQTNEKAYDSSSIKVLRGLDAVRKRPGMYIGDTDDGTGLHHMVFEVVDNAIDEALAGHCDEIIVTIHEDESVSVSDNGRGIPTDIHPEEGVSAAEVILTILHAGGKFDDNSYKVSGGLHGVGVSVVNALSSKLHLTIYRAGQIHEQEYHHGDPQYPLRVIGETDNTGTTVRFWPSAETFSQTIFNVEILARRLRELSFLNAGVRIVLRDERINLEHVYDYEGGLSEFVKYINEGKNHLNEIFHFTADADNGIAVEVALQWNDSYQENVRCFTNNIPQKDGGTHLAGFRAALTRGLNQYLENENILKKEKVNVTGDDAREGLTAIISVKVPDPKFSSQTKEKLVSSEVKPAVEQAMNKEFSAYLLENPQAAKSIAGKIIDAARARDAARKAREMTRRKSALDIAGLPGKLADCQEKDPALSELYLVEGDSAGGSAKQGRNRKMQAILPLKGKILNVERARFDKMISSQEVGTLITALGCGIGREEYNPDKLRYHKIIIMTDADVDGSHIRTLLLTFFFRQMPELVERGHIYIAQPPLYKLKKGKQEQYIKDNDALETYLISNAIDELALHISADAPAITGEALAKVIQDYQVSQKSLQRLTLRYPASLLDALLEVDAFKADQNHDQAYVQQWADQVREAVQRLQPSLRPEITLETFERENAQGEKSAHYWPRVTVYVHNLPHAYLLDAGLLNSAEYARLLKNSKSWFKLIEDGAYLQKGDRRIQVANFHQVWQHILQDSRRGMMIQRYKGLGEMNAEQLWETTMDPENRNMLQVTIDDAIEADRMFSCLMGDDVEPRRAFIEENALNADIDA
Chain of A. baumannii DNA gyrase (A0ABX6CII0 1-904 partner): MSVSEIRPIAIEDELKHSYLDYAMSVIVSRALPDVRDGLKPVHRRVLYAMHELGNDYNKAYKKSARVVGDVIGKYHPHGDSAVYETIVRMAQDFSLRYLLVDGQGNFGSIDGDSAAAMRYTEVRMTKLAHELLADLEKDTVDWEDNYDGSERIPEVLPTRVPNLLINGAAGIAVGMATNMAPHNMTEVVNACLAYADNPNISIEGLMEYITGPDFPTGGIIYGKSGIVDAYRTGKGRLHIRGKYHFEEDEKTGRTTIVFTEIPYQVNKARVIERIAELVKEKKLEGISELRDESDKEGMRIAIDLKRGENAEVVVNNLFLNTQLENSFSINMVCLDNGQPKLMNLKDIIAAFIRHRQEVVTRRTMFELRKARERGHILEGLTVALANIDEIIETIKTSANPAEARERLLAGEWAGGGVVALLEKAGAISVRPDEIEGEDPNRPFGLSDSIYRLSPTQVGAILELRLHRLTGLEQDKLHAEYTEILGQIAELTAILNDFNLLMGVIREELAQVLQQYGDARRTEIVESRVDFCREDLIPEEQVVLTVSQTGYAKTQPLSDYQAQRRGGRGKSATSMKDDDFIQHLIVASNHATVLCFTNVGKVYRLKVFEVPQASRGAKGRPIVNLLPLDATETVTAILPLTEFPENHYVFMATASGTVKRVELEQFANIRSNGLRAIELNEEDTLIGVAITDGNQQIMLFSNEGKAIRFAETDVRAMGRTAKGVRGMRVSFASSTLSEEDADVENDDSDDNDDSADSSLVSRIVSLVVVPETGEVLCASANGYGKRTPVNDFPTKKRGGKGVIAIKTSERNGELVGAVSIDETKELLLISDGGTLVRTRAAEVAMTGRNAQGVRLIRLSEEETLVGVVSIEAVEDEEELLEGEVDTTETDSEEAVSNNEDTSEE

## Cc1[nH]c(C(=O)Nc2nc3c(N4CCOCC4)cc(C(=O)O)cc3s2)c(Cl)c1Cl [7a, 2-(3,4-Dichloro-5-methyl-1H-pyrrole-2-carboxamido)-4-morpholinobenzo[d]thiazole-6-carboxylic Acid]
HepG2 cell line; with serum, 72 h
  cytotoxic concentration (no cytotoxicity up to): > 100 µM
HepG2 cell line; without fetal bovine serum
  cytotoxic concentration (no cytotoxicity up to): > 100 µM
MCF-7 cell line; with serum, 72 h
  cytotoxic concentration (no cytotoxicity up to): > 100 µM
MCF-7 cell line; without fetal bovine serum
  cytotoxic concentration (no cytotoxicity up to): > 100 µM
[1]; 10 mg/kg
  CFU/ g of thigh, single animals: 1.82E+08 and 2.23E+08 and 2.51E+08 and 1.42E+08
  log CFU, single animals: 8.26 and 8.35 and 8.40 and 8.15
[1]; 10 mg/kg TID
  Change in log10CFU/gr of thigh from 2 hour control: 2.00
  Change in log10CFU/gr of thigh from 26 hours control: 0.19
  Average log10CFU/gr of thigh: 8.29
[1]; 25 mg/kg
  CFU/ g of thigh, single animals: 4.64E+05 and 4.16E+06 and 1.83E+07 and 9.23E+06
  log CFU, single animals: 5.67 and 6.62 and 7.26 and 6.97
[1]; 25 mg/kg IV
  reduction compared to 26 h controls: 1.47 log10 cfu
[1]; 25 mg/kg TID
  Change in log10CFU/gr of thigh from 2 hour control: 0.33
  Change in log10CFU/gr of thigh from 26 hours control: -1.47
  Average log10CFU/gr of thigh: 6.63
[1]; 50 mg/kg
  CFU/ g of thigh, single animals: 1.72E+05 and 1.68E+05 and 8.81E+05 and 8.82E+04
  log CFU, single animals: 5.24 and 5.23 and 5.95 and 4.95
[1]; 50 mg/kg IV
  reduction compared to 26 h controls: 2.76 log10 cfu
[1]; 50 mg/kg IV (TID)
  reduction compared to 2 hour infection controls: 0.96 log10 cfu
[1]; 50 mg/kg TID
  Change in log10CFU/gr of thigh from 2 hour control: -0.96
  Change in log10CFU/gr of thigh from 26 hours control: -2.76
  Average log10CFU/gr of thigh: 5.34
A. baumannii DNA gyrase
  IC50: 2.42 ± 0.28 nM

## C[C@@H](O)[C@H]1C(=O)N2C(C(=O)O)=C(SCCNC=N)C[C@H]12 [Imipenem, imipenem]
H. influenzae ATCC 49766
  MIC, CLSI Range: 0,25 - 1 µg/mL
